`CCOc1sc(C)nc1S(N)(=O)=O` had a melting point of 118 to 120 °C. The compound `O=S(=O)(Nc1cccc(CCOCc2csc(-c3ccc(Cl)cc3)n2)c1)C(F)(F)F` showed a melting point of 114 to 116 °C. In the case of `COC(Cc1c(Br)cc(Br)c(C(N)=O)c1Br)C(=O)O` (centres undefined) it was 138 to 139 °C; in that of `Cc1cc2c(cc1C(=O)N=C(N)N)S(=O)(=O)CC2(C)O` (centres undefined), 243 to 245 °C; in that of `CN1C(=O)NC(=O)C1=Cc1cc(OCCCC(=O)N(C)C2CCCCC2)ccc1[N+](=O)[O-]`, 149 to 154 °C. `C=C(c1ccc(F)cc1)c1ccccc1Cl` yielded a melting point of 73 to 74 °C. The figure for `CC(C)CC12CCC3C4CCC(=O)C=C4CCC3C1CCC2OC(=O)CCc1ccccc1` (centres undefined) is 101 to 106 °C. Regarding `Oc1cccc(Sc2ncccc2O)c1`, the melting point was 147 to 148 °C.

In turn, `CCOc1cc(O)c2cc(F)c(F)c(F)c2n1` showed a melting point of 171 °C. Consider `CCn1cc(C(=O)O)c(=O)c2cc(F)c(-c3ccnc(N)n3)cc21`, for which the melting point fell in the range of 245 to 247 °C. As for `Cc1cc(-c2ncn3c(C(F)(F)F)cc(-c4ccc(C(F)(F)F)c(OCC(F)(F)F)c4)nc23)ccn1`, the melting point is 189 °C. The figure for `O[C@@H]1CNC[C@H]1Sc1ccccc1` (relative stereo) is 140 to 141 °C.

Compound `COc1ccc(C(=O)CC(C)(C)C(=O)O)cc1OC` returned a melting point of 114 to 116 °C. On to `Cc1cc(OC(F)(F)F)cc2sc(N)nc12`, for which the melting point turned out to be 162 °C. In the case of `COc1ccc(CCNc2ncnc3occ(C)c23)cc1` it was 184 °C; in that of `CCCC(O)c1cc2c(cc1C)OCO2` (centres undefined), 65.5 to 66.5 °C. In the case of `O=C1CCc2c(F)cc(Cl)cc21` it was 105 to 107 °C; in that of `O=S(=O)(NCC(O)(Cn1cncn1)c1ccc(Cl)cc1Cl)c1ccc(Cl)cc1` (centres undefined), 182 to 183 °C. With `COC(=O)C(c1ccccc1)N1CCN(c2ccc([N+](=O)[O-])cc2)CC1` (centres undefined), the melting point amounted to 92 °C.

For `CCc1cn(C(C)C(=O)N(C)C)nc1-c1ccccc1` (centres undefined), the melting point is 73.5 to 75 °C. The figure for `CC1(C)CC(OC(=O)CCCCCCCCC(=O)OC2CC(C)(C)N(OC3CCCCC3)C(C)(C)C2)CC(C)(C)N1OC1CCCCC1` is 56 to 59 °C; for `CCCc1cc(COc2cc(CC)nc(C)c2OC)ccc1-c1ccccc1S(=O)(=O)Nc1noc(C)c1C` it is 63 to 65 °C; for `CCNC(=O)ON1C(=O)CCC1=O` it is 131 to 133 °C. Take `FC(F)(F)Oc1ccc(C2N=C(Nc3cccc(-c4cncnc4)c3)n3ccnc32)cc1` (centres undefined): the melting point was 120 to 130 °C. In the case of `O=C1/C(=C(/c2ccccc2)N2CCCC2)Sc2ccccc21` it was 157 °C. Compound `COc1cc2c(cc1OC)/C(=C\c1ccc(OCC(=O)OC(C)(C)C)cc1)C(=O)N2` had a melting point of 158 to 160 °C. On to `Cc1nc(-n2ccc(COc3ccccc3)cc2=O)sc1C(=O)NCc1ccccc1`, for which the melting point lay in the range of 175 to 177 °C. `CC(=O)N(Cc1cccnc1)c1ccc(Cl)cc1`: the melting point fell in the range of 64 to 65 °C.

Regarding `COc1ccc(C2CCCN(C(=O)C(F)(F)F)C2)cc1N` (centres undefined), the melting point is 88 °C. Turning to `O=C1NC(CO)(CO)CO1`, the melting point was 107 to 108 °C. The compound `CCOC1(C)Oc2cccc(OC(=O)NC)c2O1` (centres undefined) had a melting point of 97 to 98.5 °C.

With `CC(=O)OC1CSC(Oc2cccnc2-c2nnn[nH]2)C(OC(C)=O)C1OC(C)=O` (centres undefined), the melting point is 119 to 127 °C. Consider `Cc1ccc(CCc2ccccc2Br)c(N)c1`, for which the melting point fell in the range of 67 to 69 °C. The figure for `Cc1c(NC(=O)c2ccc(-c3ccc(F)cc3)cc2F)ccc2cc(CN3CCCCC3)cnc12` is 186 to 187 °C; for `O=C(O)COCCCCS(=O)(=O)c1cnc(-c2ccccc2)c(-c2ccccc2)n1` it is 123 to 125 °C. The figure for `CCCCN1C(=O)c2ccc(O)cc2C1=O` is 126 to 127 °C.

Regarding `C#Cc1ccc(=O)oc1`, the melting point fell in the range of 99 to 100 °C. Compound `CCc1noc(NC(C)=O)c1Cl` displayed a melting point of 113 to 114 °C. The figure for `Cc1nc2cnccc2n1-c1ccc2c(c1)CC(C(=O)O)C2` (centres undefined) is 264 to 267 °C; for `O=C(O)CCCCCCCCCCn1c(-c2ccccc2)c(-c2ccccc2)n(-c2ccccc2)c1=O` it is 83 to 84 °C. The compound `O=C1c2ccccc2-n2cnc(Br)c2[C@@H]2CCCN12` yielded a melting point of 225 to 226 °C. `Cc1[nH]c(/C=C2\C(=O)Nc3cc(NC(=O)c4cccn(-c5ccc(F)cc5)c4=O)ccc32)c(C)c1CC(=O)O`: the melting point was above 300 °C.

The compound `CCOCc1nnc2c(C)c(Cl)ccn12` came in with a melting point of 92.9 °C. Consider `Cc1n[nH]c(C)c1-c1cccc(OC2SCC(O)C(O)C2O)c1` (centres undefined), for which the melting point is 213 °C.

Compound `O=C1c2c(O)cccc2C(O)(c2cccc(C(F)(F)F)c2)c2cccc(O)c21` displayed a melting point of 222 to 223 °C. In the case of `NC1CN(c2c(F)cc3c(=O)c(C(=O)O)cn(C4CC4)c3c2F)C1` it was 214 to 216 °C. Take `O=c1ccc(S(=O)(=O)c2cc3cc(Cl)ccc3[nH]2)n[nH]1`: the melting point was above 250 °C. The compound `C[C@@H](NC(=O)c1nsc(-c2ccc(Cl)cc2)n1)[C@](O)(Cn1cncn1)c1ccc(F)cc1F` yielded a melting point of 186 to 187 °C.

`CN1CCN(c2cc3c(cc2F)c(=O)c(C(=O)O)cn3Cc2ccccc2)CC1` returned a melting point of 266 °C.

`O=C(O)c1cc(OCc2ccccc2)c(C(=O)c2c(OCc3ccccc3)cccc2C(=O)OCc2ccccc2)c(OCc2ccccc2)c1` registered a melting point of 151 to 156 °C.

`Nc1ccc(S(=O)(=O)Nc2ccn(C3CCCC3)c(=O)n2)cc1` yielded a melting point of 167 to 171 °C. The figure for `CCOC(=O)CCCNC(=O)c1nn(C2CCCCO2)cc1NC(=O)c1ccccn1` (centres undefined) is 114 to 115 °C; for `CCCc1nn(-c2ccc(C(F)(F)F)cn2)cc1CCCCOc1nn(-c2ccccc2)cc1CC(=O)O` it is 114 to 115 °C; for `OCc1cc2occc2cn1` it is 72 to 74 °C. In the case of `CCOc1ccc(C2(C(=O)Oc3ccc(C(=O)NO)cc3)CCCCC2)cc1` it was 140 to 143 °C. In the case of `CC(=C1SC(=O)NC1=O)c1ccc(OCCOc2c(-c3cc(F)ccc3C)n(C)c3ccccc3c2=O)cc1` it was 192 to 196 °C; in that of `COc1nc(C)cnc1N(C(=O)OCC(C)C)S(=O)(=O)c1cccnc1-c1ccc(I)cc1`, 156 to 158 °C. Consider `COc1cc(C=C2N=C(C)OC2=O)ccc1OC(C)=O`, for which the melting point fell in the range of 205 to 206 °C.

Turning to `O=C(NCCN1C(=O)C2(COc3cc4c(cc32)OCO4)c2ccccc21)c1ccccc1OC(F)(F)F` (centres undefined), the melting point fell in the range of 183 to 184 °C.

On to `CC(C)OCC(=O)CC1c2ccccc2C(=O)N1c1ccc2ccc(Cl)nc2n1` (centres undefined), for which the melting point stood at 200 °C.

`c1ccc(CSc2nc3ccccc3s2)cc1` returned a melting point of 39 to 40 °C. In turn, `Cc1ccccc1NC(=O)CN(C(=O)CN1C(=O)c2ccccc2C1=O)c1ccccc1` yielded a melting point of 160 °C.

As for `CC1(C)CC(=C(c2ccccc2)c2ccc(OCCOCCO)cc2)CC(C)(C)C1`, the melting point is 116 to 117 °C.

With `CCCc1nc(C(C)(O)CC)c(C(=O)O)n1Cc1ccc(-c2ccccc2-c2nnn[nH]2)cc1` (centres undefined), the melting point was 174 to 177 °C.

`NS(=O)(=O)c1cccc(-c2cc(-c3nc(-c4ccc(F)cc4)cc(C(F)(F)F)n3)ccn2)c1` had a melting point of 240 °C.

`COc1ccc2c(c1)C(=O)N(c1cc3ccn(C)c3cn1)C2` came in with a melting point of 205 to 210 °C. Take `CC(C)S(=O)(=O)Nc1cccc(C=C2c3ccccc3CCc3ccccc32)c1`: the melting point was determined as 188 °C. Turning to `CCS(=O)(=O)c1ccc(F)c([N+](=O)[O-])c1`, the melting point was 128 to 131 °C. The figure for `COc1cc(C)c(O)c(CCCCCCCCCCO)n1` is 80 to 81 °C; for `CC(C)CN1C(=O)[C@@H](CC(=O)O)O[C@H](c2ccccc2OC(C)C)c2cc(Cl)ccc21` (relative stereo) it is 146 to 149 °C; for `CCOCCN(SC(Cl)(Cl)Cl)C(=N)C(Cl)(Cl)Cl` it is 65 to 66 °C.

Turning to `CCn1c(=O)n(Cc2ccccc2)c(=O)c2c(N3CCN(C)CC3)cc(Cl)cc21`, the melting point was 68 to 75 °C. Take `Cc1cnc2c(NC(=O)c3c(Cl)cccc3Cl)cccc2c1Cl`: the melting point lay within 216 to 227 °C. In the case of `COc1ccc2c(c1)C(c1ccccc1Cl)C(=O)N2` (centres undefined) it was 179 °C. In the case of `COC(=O)Cn1cc([C@H]2CCC3C4CC=C5C[C@@H](O)CC[C@]5(C)C4CC[C@@]32C)nn1` (some centres undefined) it was 221 to 223 °C; in that of `N#Cc1cc(-c2c(-c3ccccc3)nn3ccccc23)c[nH]c1=O`, 312 to 314 °C; in that of `N=c1[nH]c2ccccc2c2nc(-c3ccco3)nn12`, 282 to 285 °C. In the case of `CCc1nc2c(Cl)cc(F)c([N+](=O)[O-])c2s1` it was 70 to 73 °C.

For the compound `Cc1cc(C2=NN(C3=NCCS3)C(C)Cc3cc4c(cc32)OCO4)ccc1[N+](=O)[O-]` (centres undefined), the melting point lay in the range of 130 to 135 °C.

`COc1cc(Nc2nc3cccc(-c4ccc(S(N)(=O)=O)cc4)c3o2)cc(OC)c1OC`: the melting point lay in the range of 247 to 252 °C. Compound `OC1Cn2cccc2Sc2ccccc21` (centres undefined) yielded a melting point of 101 to 102 °C. Turning to `CNc1ncnc2c1ncn2C1OC(CO)C(O)C1F` (centres undefined), the melting point was found to be 140 °C. Consider `CC(C)(C)OC(=O)NC1CCN(CCO)CC1`, for which the melting point was 66 °C.

Regarding `C(=NNc1nc(OCCc2ccccn2)nc(N2CCOCC2)n1)c1c[nH]c2ccccc12`, the melting point lay within 158 to 161 °C.

In turn, `CN(C)c1ccc(C(=O)Nc2cc(C(=O)NCc3ccccc3)ccn2)cc1` displayed a melting point of 160 to 165 °C. `O=C(CCc1ccccc1)Nc1cc(-c2nnc(SCc3cccc(C(F)(F)F)c3)o2)ccn1` yielded a melting point of 159 to 160 °C.

Turning to `CNC(=O)CSC(c1ccccc1)(c1ccccc1)c1ccccc1`, the melting point was 200 to 210 °C. The figure for `COc1ccc2[nH]cc(C3CCC(=O)CC3)c2c1` is 103 to 106 °C. `O=[N+]([O-])c1ccc2c(c1Br)OCO2` had a melting point of 87 to 89 °C.

These data come from a melting point compilation (Tetko et al.; mined from patent text by program, amines drawn as free bases though some values may be those of a salt).
